# Measured values as given in patent publication US11124554B2, “Modified ligand-gated ion channels and methods of use” (Howard Hughes Medical Institute, priority 2016, dated 2021).
# pEC50: −log10 of the molar value. Read-outs that look alike come from different tables or passages of the source.
# Assays:
# α7-GlyR = target: T1, α7-GlyR (Homo sapiens, UniProt P36544); test: Agonist potency (EC50), HEK cells expressing chimeric channel; format: cell-based
# T1 construct: expressed in transfected cells; host or cells: HEK cells
# α7-5HT3 = target: T2, α7-5HT3 (Homo sapiens, UniProt P36544, M226I/T225I); test: as above; format: cell-based, human α7 nAChR LBD, murine 5HT3 IPD
# T2 construct: expressed in transfected cells; host or cells: HEK cells
# α7^Q79G-GlyR^A298G = target: T3, α7^Q79G-GlyR^A298G (Homo sapiens, UniProt P36544, A298G/Q79G); test: as above; format: cell-based
# T3 construct: expressed in transfected cells; host or cells: HEK cells
# α7^L131G-5HT3 HC = test: Agonist potency at chimeric channel (Table 9); format: cell-based, human; conditions: α7^L131G-5HT3 HC; reduction
# α7^Y115F,G175K-GlyR = target: T4, α7^Y115F,G175K-GlyR (Homo sapiens, UniProt P36544, G175K/Y115F); test: Agonist potency at chimeric channel; format: cell-based; conditions: Table 6; read-out: Potency, a7GlyR Y115F G175K
# T4 construct: expressed in transfected cells
# α7^G175K-GlyR = target: T5, α7^G175K-GlyR (Homo sapiens, UniProt P36544, G175K); test: Agonist potency at chimeric channel; format: cell-based; conditions: Table 6; read-out: Potency, a7GlyR G175K
# T5 construct: expressed in transfected cells
# α7^Q79G,Y115F,G175K-GlyR = target: T6, α7^Q79G,Y115F,G175K-GlyR (Homo sapiens, UniProt P36544, G175K/Q79G/Y115F); test: Agonist potency at chimeric channel; format: cell-based; conditions: Table 6; read-out: Potency, a7Gly Q79G G175K Y115F
# T6 construct: expressed in transfected cells
# α7^W77F,Q79G,G175K-GlyR = target: T7, α7^W77F,Q79G,G175K-GlyR (Homo sapiens, UniProt P36544, G175K/Q79G/W77F); test: Agonist potency at chimeric channel; format: cell-based; conditions: Table 6; read-out: Potency, a7GlyR W77F Q79G G175K
# T7 construct: expressed in transfected cells
# α7^Q79G,G175K-GlyR = target: T8, α7^Q79G,G175K-GlyR (Homo sapiens, UniProt P36544, G175K/Q79G); test: Agonist potency at chimeric channel; format: cell-based; conditions: Table 6; read-out: Potency, a7GlyR Q79G G175K
# T8 construct: expressed in transfected cells
# [1] = target: T9, α7GlyR Q79G G175K Y115F R27D E41R (Homo sapiens, UniProt P36544, E41R/G175K/Q79G/R27D/Y115F); test: Agonist potency at chimeric channel; format: cell-based; conditions: Table 6; read-out: Potency, a7GlyR Q79G G175K Y115F R27D E41R
# T9 construct: expressed in transfected cells
# [2] = HEK cells, Table 3, read-out: α7-GlyR EC50
# [3] = HEK cells, Table 3, read-out: α7-5HT3 EC50
# [4] = HEK cells, Table 3, read-out: α7^Q79G-GlyR^A298G EC50
# [5] = Table 6, read-out: Potency, a7-5HT3
# T2 sequence (P36544 with tags, fused parts or gaps T225I/M226I): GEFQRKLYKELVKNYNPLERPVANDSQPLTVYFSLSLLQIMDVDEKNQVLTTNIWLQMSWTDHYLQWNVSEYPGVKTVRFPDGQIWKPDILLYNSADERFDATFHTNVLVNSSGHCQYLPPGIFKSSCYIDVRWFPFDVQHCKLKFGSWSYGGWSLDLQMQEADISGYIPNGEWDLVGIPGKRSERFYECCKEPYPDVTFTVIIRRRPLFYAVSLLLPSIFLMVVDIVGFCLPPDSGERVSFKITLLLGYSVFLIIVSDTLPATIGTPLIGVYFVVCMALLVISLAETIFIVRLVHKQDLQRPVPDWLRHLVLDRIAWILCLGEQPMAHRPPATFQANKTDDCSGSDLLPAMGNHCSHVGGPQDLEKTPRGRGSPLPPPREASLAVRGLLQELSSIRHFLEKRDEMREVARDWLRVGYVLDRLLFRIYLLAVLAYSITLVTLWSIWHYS
# T3 sequence (P36544 with tags, fused parts or gaps Q79G): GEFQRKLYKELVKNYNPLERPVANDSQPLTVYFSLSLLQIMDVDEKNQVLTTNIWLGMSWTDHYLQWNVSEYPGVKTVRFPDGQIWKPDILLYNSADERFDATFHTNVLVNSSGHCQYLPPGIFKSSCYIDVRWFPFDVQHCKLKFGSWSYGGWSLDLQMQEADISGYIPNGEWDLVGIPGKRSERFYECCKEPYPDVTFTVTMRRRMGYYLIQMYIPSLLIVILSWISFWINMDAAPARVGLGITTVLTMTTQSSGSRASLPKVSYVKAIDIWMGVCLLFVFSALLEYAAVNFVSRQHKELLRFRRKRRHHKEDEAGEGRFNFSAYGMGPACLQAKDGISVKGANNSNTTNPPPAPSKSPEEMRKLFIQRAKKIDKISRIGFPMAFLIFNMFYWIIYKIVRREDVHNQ
# T1 sequence (P36544 with tags, fused parts or gaps): as the sequence (P36544 with tags, fused parts or gaps Q79G) above, with G57Q, G276A counted along it
# T5 sequence (P36544 with tags, fused parts or gaps G175K): as the sequence (P36544 with tags, fused parts or gaps Q79G) above, with G57Q, G153K, G276A counted along it
# T6 sequence (P36544 with tags, fused parts or gaps Q79G/Y115F/G175K): as the sequence (P36544 with tags, fused parts or gaps Q79G) above, with Y93F, G153K, G276A counted along it
# T7 sequence (P36544 with tags, fused parts or gaps W77F/Q79G/G175K): as the sequence (P36544 with tags, fused parts or gaps Q79G) above, with W55F, G153K, G276A counted along it
# T9 sequence (P36544 with tags, fused parts or gaps R27D/E41R/Q79G/Y115F/G175K): as the sequence (P36544 with tags, fused parts or gaps Q79G) above, with R5D, E19R, Y93F, G153K, G276A counted along it
# T8 sequence (P36544 with tags, fused parts or gaps Q79G/G175K): as the sequence (P36544 with tags, fused parts or gaps Q79G) above, with G153K, G276A counted along it
# T4 sequence (P36544 with tags, fused parts or gaps Y115F/G175K): as the sequence (P36544 with tags, fused parts or gaps Q79G) above, with G57Q, Y93F, G153K, G276A counted along it
SMILES,pEC50 (α7-GlyR; [2]),pEC50 (α7-5HT3; [3]),pEC50 (α7^Q79G-GlyR^A298G; [4]),also measured
COc1ccc(OC)c(C(=O)NC2C3CCN(CC3)C2Cc2cccnc2)c1 (mixture of isomers) [Compound 0434],< 5.00,< 5.00,6.72,–
O=C(NC1C2CCN(CC2)C1Cc1cccnc1)c1ccc(C(F)(F)F)cc1 (mixture of isomers) [Compound 0436],6.51,6.08,8.22,–
CC(=O)OCC[N+](C)(C)C [Acetylcholine],–,–,–,reduced ACh responsiveness (α7^L131G-5HT3 HC): 5 fold
O=C(NC1CN2CCC1CC2)c1ccc(C(F)(F)F)cn1 (stereo not drawn) [Compound 0295],< 4.00,< 4.00,5.34,–
O=C(NC1CN2CCC1CC2)c1ccc(C(F)(F)F)nc1 (stereo not drawn) [Compound 0296],–,< 4.00,6.35,–
O=C(Nc1ccccc1)NC1CN2CCC1CC2 (stereo not drawn) [Compound 0353],6.57,6.19,8.00,–
S=C(Nc1ccc(Cl)cc1)NC1CN2CCC1CC2 (stereo not drawn) [Compound 0354],–,–,7.52,"pEC50 (α7-GlyR): 6.00; partial agonist activity, α7-5HT3 (α7-5HT3; HEK cells, Table 3): partial; pEC50 (α7-5HT3; read-out: α7-5HT3 EC50, HEK cells, Table 3): 5.85"
CN1[C@@H]2CCC[C@H]1C[C@@H](NC(=S)c1ccc(Cl)cc1)C2 [Compound 0536],< 4.00,< 4.48,–,pEC50 (α7^Q79G-GlyR^A298G): 5.04
CN1C2CCC1CC(NC(=S)c1c[nH]c3ccccc13)C2 (stereo not drawn) [Compound 0542],–,5.42,7.14,–
CN1C2CCC1CC(NC(=S)c1cn(C)c3ccccc13)C2 (stereo not drawn) [Compound 622],–,–,–,"pEC50 (α7-5HT3; [5]): < 4.00; pEC50 (α7^Y115F,G175K-GlyR): 5.60; pEC50 (α7^G175K-GlyR): 6.06; pEC50 (α7^Q79G,Y115F,G175K-GlyR): 6.03; pEC50 (α7^W77F,Q79G,G175K-GlyR): 5.77"
O=C(NC1CN2CCC1CC2)c1c[nH]c2ccccc12 (stereo not drawn) [Compound 0676],–,7.52,8.70,–
FC(F)(F)Oc1ccc(NC(=S)N[C@H]2CN3CCC2CC3)cc1 [Compound 684],–,–,–,"pEC50 (α7-5HT3; [5]): < 4.00; pEC50 (α7^Q79G,G175K-GlyR): 7.11; pEC50 (α7^G175K-GlyR): 6.64; pEC50 (α7^Q79G,Y115F,G175K-GlyR): 6.10; pEC50 [1]: 6.40"
